We go through 60 compounds from USRE38506E1, “Potent inducers of terminal differentiation and methods of use thereof” (Sloan-Kettering Institute for Cancer Research, priority 1991, dated 2004).

Assay [1] relates to MELC 745A-DS19 cells. Nature of the assay: Induction of terminal differentiation of murine erythroleukemia cells (benzidine reactivity). The format is cell-based. Conditions: for Optimal Conc.: Table 1; for Benzidine Reactive Cells: at optimal concentration. As to the method:
MELC 745A-DS19 cells and the variants of MELC derived from this cell line, namely, the vincristine-resistant MELC V3.17 and VCR.C(2)15 cell lines (26), and the dimethylsulfoxide-resistant cell line, DR10 (39), were maintained in alpha minimal essential medium containing 10% fetal calf serum (16). Cell cultures for all experiments were initiated with cells in logarithmic growth phase (day 2 cultured cells) at a density of 10^5 cells/ml. Inducer compounds were added in the final concentrations indicated below, dissolved in culture medium without fetal calf serum unless otherwise indicated. Cell density and benzidine reactively were determined as described (16).
(§1) Commitment to terminal differentiation, characterized by limited cell division (colony size<32 cells) and accumulation of hemoglobin (benzidine reactive colonies) was assayed by a colony cloning assay using 2% methylcellulose as described (25) (see Table 1 for results). HL-60 human leukemia cells, derived from peripheral blood leukocytes of a patient with acute promyelocytic leukemia (40). Induced differentiation of HL-60 cells assayed by determining the proportion of cells that developed the capacity to reduce nitroblue tetrazolium (NBT) (41) (see Table 2 for results).

Assay [2] deals with HL-60 human leukemia cells. Nature of the assay: Induction of Differentiation of HL-60 (NBT reduction). The format is cell-based. Conditions: for Optimal Conc.: HL-60, Table 2; for NBT Positive: HL-60, at optimal concentration. The method, then:
as §1

Take `O=C(CCCCCCC(=O)Nc1ccc(C(F)(F)F)cc1)NO` [compound 27]: in assay [1], the “Optimal Conc.” value stood at 5 µM and the “Benzidine Reactive Cells” value is listed as 47%.

Regarding `N#Cc1cccc(NC(=O)CCCCCCC(=O)NO)c1` [compound 22], in assay [2], the “Optimal Conc.” value amounted to 1.7 µM and the “NBT Positive” value came to 28%. Further, in assay [1], the “Optimal Conc.” value was determined as 5 µM and the “Benzidine Reactive Cells” value is on record as 55%.

For the compound `O=C(CCCCCCC(=O)Nc1ccccc1)NO` [compound 3], in assay [2], the “Optimal Conc.” value stood at 1 µM and the “NBT Positive” value came out at 21%. In addition, the “Benzidine Reactive Cells” value in assay [1] is given as 70%.

In the case of `O=C(CCCCCCC(=O)Nc1ccc(F)cc1F)Nc1ccc(F)cc1F` [compound 59], in assay [1], the “Optimal Conc.” value came out at 500 µM and the “Benzidine Reactive Cells” value amounted to 54%.

As to `O=C(CCCCCCC(=O)Nc1c(F)cccc1F)Nc1c(F)cccc1F` [compound 60], in assay [1], the “Optimal Conc.” value was determined as 100 µM and the “Benzidine Reactive Cells” value came to 21%.

With `N#Cc1ccc(NC(=O)CCCCCCC(=O)NO)cc1` [compound 21], in assay [2], the “Optimal Conc.” value came to 2 µM and the “NBT Positive” value came out at 6%. For the same compound, in assay [1], the “Optimal Conc.” value was found to be 7 µM and the “Benzidine Reactive Cells” value is on record as 70%.

For the compound `O=C(CCCCCCC(=O)Nc1cc(F)c(F)c(F)c1)NO` [compound 48], in assay [1], the “Optimal Conc.” value came to 8 µM and the “Benzidine Reactive Cells” value is 55%.

For the compound `O=C(CCCCCCCC(=O)Nc1ccccc1)NO` [compound 4], in assay [1], the “Optimal Conc.” value stood at 20 µM and the “Benzidine Reactive Cells” value is recorded as 8%.

On to `CONC(=O)CCCCCCC(=O)NO` [compound 15], for which the “Benzidine Reactive Cells” value in assay [1] is given as 43%.

`O=C(CCCCCCC(=O)Nc1cccc(F)c1)NO` [compound 33]: in assay [1], the “Optimal Conc.” value amounted to 1 µM and the “Benzidine Reactive Cells” value stood at 25%.

In the case of `Nc1ccccc1NC(=O)CCCCCCC(=O)NO` [compound 28], in assay [1], the “Optimal Conc.” value worked out at 20 µM and the “Benzidine Reactive Cells” value is given as 54%.

As to `O=C(CCCCCCC(=O)Nc1cccc(Cl)c1)NO` [compound 30], in assay [1], the “Optimal Conc.” value was 2 µM and the “Benzidine Reactive Cells” value is 33%.

As to `O=C(CCCCCC(CCCCCC(=O)NO)C(=O)NO)NO` [compound 69], the “Benzidine Reactive Cells” value in assay [1] was determined as 40%.

On to `O=C(CCCCCCC(=O)Nc1cccc(C(F)(F)F)c1)NO` [compound 26], for which, in assay [2], the “Optimal Conc.” value stood at 6 µM and the “NBT Positive” value came out at 27%. In assay [1], the “Optimal Conc.” value came to 30 µM and the “Benzidine Reactive Cells” value is on record as 30%.

With `COc1ccccc1NC(=O)CCCCCCC(=O)NO` [compound 51], in assay [1], the “Optimal Conc.” value was determined as 8 µM and the “Benzidine Reactive Cells” value worked out at 36%.

On to `O=C(CCCCCCC(=O)Nc1c(F)ccc(F)c1F)Nc1c(F)ccc(F)c1F` [compound 62], for which, in assay [1], the “Optimal Conc.” value amounted to 250 µM and the “Benzidine Reactive Cells” value turned out to be 28%.

Regarding `O=C(CCCCCCC(=O)Nc1ccc([N+](=O)[O-])cc1)Nc1ccc([N+](=O)[O-])cc1` [compound 65], in assay [1], the “Optimal Conc.” value was found to be 25 µM and the “Benzidine Reactive Cells” value is on record as 14%.

Take `O=C(CCCCCCC(=O)Nc1cc(F)cc(F)c1)Nc1cc(F)cc(F)c1` [compound 61]: in assay [1], the “Optimal Conc.” value was 125 µM and the “Benzidine Reactive Cells” value came out at 31%.

`O=C(CCCCCCC(=O)Nc1c(F)cc(F)cc1F)Nc1c(F)cc(F)cc1F` [compound 63]: in assay [1], the “Optimal Conc.” value turned out to be 125 µM and the “Benzidine Reactive Cells” value was 35%.

As to `O=C(CCCCCCC(=O)NC1CCCCC1)NO` [compound 16], the “Benzidine Reactive Cells” value in assay [1] worked out at 35%.

`N#CCCCCCC(=O)NO` [compound 14]: the “Benzidine Reactive Cells” value in assay [1] is listed as 30%.

For `O=C(CCCCCCC(=O)Nc1ccc(F)cc1F)NO` [compound 45], in assay [1], the “Optimal Conc.” value worked out at 6 µM and the “Benzidine Reactive Cells” value was found to be 60%.

`COc1ccc(NC(=O)CCCCCCC(=O)NO)cc1` [compound 53]: in assay [1], the “Optimal Conc.” value is 6 µM and the “Benzidine Reactive Cells” value was determined as 37%.

`O=C(CCCCCCC(=O)Nc1ccccc1Cl)NO` [compound 39]: in assay [1], the “Optimal Conc.” value worked out at 4 µM and the “Benzidine Reactive Cells” value is 34%.

`CN(C)C(=O)CCCCCCC(=O)NO` [compound 11]: in assay [1], the “Benzidine Reactive Cells” value is recorded as 53%.

For `O=C(CCCCCCC(=O)Nc1cc(F)cc(F)c1)NO` [compound 50], in assay [1], the “Optimal Conc.” value came to 2 µM and the “Benzidine Reactive Cells” value amounted to 73%.

Turning to `O=C(CCCCCCC(=O)Nc1cc(F)c(F)cc1F)NO` [compound 42], in assay [1], the “Optimal Conc.” value was 8 µM and the “Benzidine Reactive Cells” value was 36%.

As for `O=C(O)CCCCCCC(=O)Nc1ccc(OCc2ccccc2)cc1` [compound 10], in assay [1], the “Optimal Conc.” value was determined as 250 µM and the “Benzidine Reactive Cells” value is given as 26%.

For `CC(CCCCCC(C)C(=O)N(C)C)C(=O)N(C)C` (stereo not shown) [compound 66], the “Benzidine Reactive Cells” value in assay [1] is recorded as 80%.

As for `O=C(CCCCCCC(=O)Nc1ccc(OCc2ccccc2)cc1)NO` [compound 35], in assay [1], the “Optimal Conc.” value amounted to 4 µM and the “Benzidine Reactive Cells” value worked out at 20%.

As to `O=C(CCCCCCC(=O)Nc1ccc(Br)cc1)NO` [compound 40], in assay [1], the “Optimal Conc.” value amounted to 1.6 µM and the “Benzidine Reactive Cells” value is on record as 47%.

For `O=C(CCCCCCC(=O)Nc1cc(F)ccc1F)NO` [compound 49], in assay [1], the “Optimal Conc.” value worked out at 4 µM and the “Benzidine Reactive Cells” value turned out to be 70%.

Consider `O=C(CCCCCCC(=O)Nc1ccccc1F)NO` [compound 32], for which, in assay [1], the “Optimal Conc.” value was determined as 4 µM and the “Benzidine Reactive Cells” value is recorded as 65%.

For `O=C(CCCCCCC(=O)Nc1ccc(F)cc1)NO` [compound 34], in assay [1], the “Optimal Conc.” value came to 4 µM and the “Benzidine Reactive Cells” value was determined as 43%.

`CC(CCC(=O)NO)CCC(=O)NO` [compound 68]: the “Benzidine Reactive Cells” value in assay [1] came out at 56%.

For `O=C(CCCCCCC(=O)N1CCCCC1)NO` [compound 17], the “Benzidine Reactive Cells” value in assay [1] is given as 30%.

Turning to `N#Cc1ccccc1NC(=O)CCCCCCC(=O)NO` [compound 23], in assay [1], the “Optimal Conc.” value is 16 µM and the “Benzidine Reactive Cells” value is 65%.

`O=C(CCCCCCC(=O)Nc1ccccc1Br)NO` [compound 38]: in assay [1], the “Optimal Conc.” value was 8 µM and the “Benzidine Reactive Cells” value was found to be 45%.

On to `O=C(CCCCCCC(=O)Nc1c(F)cc(F)cc1F)NO` [compound 44], for which, in assay [1], the “Optimal Conc.” value amounted to 16 µM and the “Benzidine Reactive Cells” value was found to be 47%.

Consider `O=C(CCCCCCC(=O)Nc1cccc(F)c1F)NO` [compound 41], for which, in assay [1], the “Optimal Conc.” value came to 8 µM and the “Benzidine Reactive Cells” value came to 24%.

Regarding `O=C(CCCCCCC(=O)Nc1ccc(C(=O)NO)cc1)Nc1ccc(C(=O)NO)cc1` [compound 57], in assay [1], the “Optimal Conc.” value turned out to be 8 µM and the “Benzidine Reactive Cells” value is on record as 10%.

For `O=C(O)CCCCCCC(=O)Nc1ccc([N+](=O)[O-])cc1` [compound 8], the “Benzidine Reactive Cells” value in assay [1] is 32%.

`O=C(CCCCCCC(=O)Nc1c(F)c(F)c(F)c(F)c1F)NO` [compound 46]: in assay [1], the “Optimal Conc.” value was determined as 31 µM and the “Benzidine Reactive Cells” value stood at 53%.

Turning to `O=C(CCC(F)(F)CCC(=O)NO)NO` [compound 70], in assay [1], the “Benzidine Reactive Cells” value worked out at 19%.

For `N#CCc1ccc(NC(=O)CCCCCCC(=O)Nc2ccc(CC#N)cc2)cc1` [compound 58], in assay [1], the “Optimal Conc.” value is 50 µM and the “Benzidine Reactive Cells” value is 25%.

Consider `CC(CCCCC(C)C(=O)N(C)C)C(=O)N(C)C` (stereo not shown) [compound 67], for which the “Benzidine Reactive Cells” value in assay [1] is reported as 90%.

As to `COC(=O)CCCCCCC(=O)NO` [compound 13], in assay [1], the “Benzidine Reactive Cells” value worked out at 17%.

Turning to `CN(C(=O)CCCCCCC(=O)NO)c1ccccc1` [compound 54], the “Benzidine Reactive Cells” value in assay [1] worked out at 40%.

As for `O=C(CCCCC(=O)Nc1ccccc1)NO` [compound 1], in assay [1], the “Optimal Conc.” value came out at 80 µM and the “Benzidine Reactive Cells” value stood at 70%.

Turning to `CNC(=O)c1ccc(NC(=O)CCCCCCC(=O)NO)cc1` [compound 37], in assay [1], the “Optimal Conc.” value came to 30 µM and the “Benzidine Reactive Cells” value is reported as 16%.

With `CC(C)(C)ONC(=O)CCCCCCC(=O)NO` [compound 18], the “Benzidine Reactive Cells” value in assay [1] is recorded as 38%.

For the compound `O=C(CCCCCCC(=O)Nc1c(F)c(F)c(F)c(F)c1F)Nc1c(F)c(F)c(F)c(F)c1F` [compound 64], in assay [1], the “Optimal Conc.” value turned out to be 125 µM and the “Benzidine Reactive Cells” value was 13%.

`O=C(O)CCCCCCC(=O)NC1CCCCC1` [compound 9]: the “Benzidine Reactive Cells” value in assay [1] worked out at 20%.

Regarding `O=C(CCCCCCC(=O)NCc1ccccc1)NO` [compound 19], the “Benzidine Reactive Cells” value in assay [1] was 24%.

Regarding `O=C(CCCCCCC(=O)Nc1ccc(F)c(F)c1)NO` [compound 47], in assay [1], the “Optimal Conc.” value turned out to be 4 µM and the “Benzidine Reactive Cells” value came to 61%.

Take `O=C(CCCCCCC(=O)Nc1cccc([N+](=O)[O-])c1)NO` [compound 24]: in assay [1], the “Optimal Conc.” value was 5 µM and the “Benzidine Reactive Cells” value came to 30%.

As for `O=C(O)CCCCCCC(=O)NO` [compound 12], the “Benzidine Reactive Cells” value in assay [1] was 35%.

Take `COc1cccc(NC(=O)CCCCCCC(=O)NO)c1` [compound 52]: in assay [1], the “Optimal Conc.” value was 6 µM and the “Benzidine Reactive Cells” value came to 38%.

On to `O=C(CCCCCCCCC(=O)Nc1ccccc1)NO` [compound 5], for which, in assay [1], the “Optimal Conc.” value came out at 20 µM and the “Benzidine Reactive Cells” value was 15%.

For `O=C(NO)c1ccc(C(=O)Nc2ccccc2)cc1` [compound 55], in assay [1], the “Benzidine Reactive Cells” value is on record as 53%.
